pIC50: −log10 of the molar value. Structures can show the parent of a compound that is named as a salt.
Key:
[1] = molecular target: human mPGES-1 (Homo sapiens (Human), UniProt O14684); test: mPGES-1 inhibiting activity (microsome fractions, PGE2 by HTRF); assay type: biochemical; conditions: microsomes from CHO-K1 cells transfected with human mPGES-1; PGH2 1 μM, 4° C., 60 seconds; read-out: mPGES-1 Inhibition IC50
Procedure, shortened: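 PGE2 formation read by HTRF after 60 s at 4 °C with 1 μM PGH2 substrate, following 20 min compound preincubation (1% DMSO) with human mPGES-1 microsomes from transfected CHO-K1 cells. Buffer: potassium phosphate, reduced glutathione, pH 7.4; IC50 from activity relative to enzyme-free blank.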

[2] = system: A549 cells; test: Inhibition of PGE2 production in A549 cell (IL-1β stimulated); assay type: cell-based, human; conditions: IL-1β 5 ng/well, PGE2 in culture medium
Procedure: Human A549 cells were seeded onto a 96-well plate at 2×10^4 cells/100 μL per well and allowed to incubate overnight. After removing the culture medium and washing with phosphate buffered saline, the culture medium was replaced by RPMI culture medium with 3% FBS containing a DMSO solution containing test compound or DMSO alone (such that DMSO final concentration would be […] in each). After incubation for 60 minutes, IL-1β (5 ng/well) was added and incubated at 37° C. for 24 hours. Then, PGE2 in the culture medium was measured using HTRF kit (Cisbio International, catalogue #62P2APEC), and PGF2α in the culture medium was measured using EIA kit (Cayman Chemical Company, catalogue #516011). The solution free of test compound was used as positive control, and the solution free of test compound and IL-1β was used as negative control. 100% activity was defined as PGE2 and PGF2α production in the positive control minus PGE2 and PGF2α production in the negative control. IC50 value was calculated by standard method.

human mPGES-1, sequence (O14684 whole entry): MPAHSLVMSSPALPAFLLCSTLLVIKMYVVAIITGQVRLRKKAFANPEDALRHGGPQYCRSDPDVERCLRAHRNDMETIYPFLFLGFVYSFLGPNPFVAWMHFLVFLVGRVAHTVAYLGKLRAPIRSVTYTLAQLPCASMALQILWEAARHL

pIC50 [1]	pIC50 ([2]; Homo sapiens, A549, 24 h)	pIC50 ([2]; 24 hours, hydrochloride)	SMILES
7.00	6.43	–	CCn1cnc2c(C(=O)Nc3cccc(Cl)c3C)cc(NC(=O)c3ccccc3C(F)(F)F)cc21 [Example 49, N-(3-Chloro-2-methylphenyl)-1-ethyl-6-({[2-(trifluoromethyl)phenyl]carbonyl}amino)-1H-benzimidazole-4-carboxamide]
6.85	6.09	–	CCn1cnc2c(C(=O)NC3CCCCC3)cc(NC(=O)c3ccccc3C(F)(F)F)cc21 [Example 50, N-Cyclohexyl-1-ethyl-6-({[2-(trifluoromethyl)phenyl]carbonyl}amino)-1H-benzimidazole-4-carboxamide]
6.92	6.48	–	CCn1cnc2c(C(=O)NCc3ccccc3C(F)(F)F)cc(NC(=O)c3ccccc3C(F)(F)F)cc21 [Example 51, 1-Ethyl-N-[2-(trifluoromethyl)benzyl]-6-({[2-(trifluoromethyl)phenyl]carbonyl}amino)-1H-benzimidazole-4-carboxamide]
7.40	6.55	–	Cc1nc2c(C(=O)Nc3cccc(Cl)c3C)cc(NC(=O)c3ccccc3C(F)(F)F)cc2o1 [Example 52, N-(3-Chloro-2-methylphenyl)-2-methyl-6-({[2-(trifluoromethyl)phenyl]carbonyl}amino)-1,3-benzoxazole-4-carboxamide]
6.75	6.55	–	Cc1nc2c(C(=O)NCc3ccccc3C(F)(F)F)cc(NC(=O)c3ccccc3C(F)(F)F)cc2o1 [Example 53, 2-Methyl-N-[2-(trifluoromethyl)benzyl]-6-({[2-(trifluoromethyl)phenyl]carbonyl}amino)-1,3-benzoxazole-4-carboxamide]
7.63	6.65	–	CCc1nc2c(C(=O)Nc3cccc(Cl)c3C)cc(NC(=O)c3ccccc3C(F)(F)F)cc2o1 [Example 54, N-(3-Chloro-2-methylphenyl)-2-ethyl-6-({[2-(trifluoromethyl)phenyl]carbonyl}amino)-1,3-benzoxazole-4-carboxamide]
8.57	7.19	–	CCOc1nc2c(C(=O)Nc3cccc(Cl)c3C)cc(NC(=O)c3ccccc3C(F)(F)F)cc2[nH]1 [Example 55, N-(3-Chloro-2-methylphenyl)-2-ethoxy-6-({[2-(trifluoromethyl)phenyl]carbonyl}amino)-1H-benzimidazole-4-carboxamide]
8.12	7.07	–	CCOc1nc2c(C(=O)NCc3ccccc3C(F)(F)F)cc(NC(=O)c3ccccc3C(F)(F)F)cc2[nH]1 [Example 56, 2-Ethoxy-N-[2-(trifluoromethyl)benzyl]-6-({[2-(trifluoromethyl)phenyl]carbonyl}amino)-1H-benzimidazole-4-carboxamide]
9.30	7.77	–	Cc1c(Cl)cccc1NC(=O)c1cc(NC(=O)c2ccccc2C(F)(F)F)cc2[nH]c(C(C)(C)CCl)nc12 [Example 57, N-(3-Chloro-2-methylphenyl)-2-(1-chloro-2-methylpropan-2-yl)-6-({[2-(trifluoromethyl)phenyl]carbonyl}amino)-1H-benzimidazole-4-carboxamide]
8.27	6.80	–	Cc1c(Cl)cccc1NC(=O)c1cc(NC(=O)c2ccccc2C(F)(F)F)cc2[nH]c(CN(C)C)nc12 [Example 58, N-(3-Chloro-2-methylphenyl)-2-[(dimethylamino)methyl]-6-({[2-(trifluoromethyl)phenyl]carbonyl}amino)-1H-benzimidazole-4-carboxamide hydrochloride]
8.68	7.89	–	Cc1c(Cl)cccc1NC(=O)c1cc(NC(=O)c2ccccc2C(F)(F)F)cc2[nH]c(CC(C)C)nc12 [Example 59, N-(3-Chloro-2-methylphenyl)-2-(2-methylpropyl)-6-({[2-(trifluoromethyl)phenyl]carbonyl}amino)-1H-benzimidazole-4-carboxamide hydrochloride]
7.70	8.10	–	CC(C)Cc1nc2c(C(=O)NCc3ccccc3C(F)(F)F)cc(NC(=O)c3ccccc3C(F)(F)F)cc2[nH]1 [Example 60, 2-(2-Methylpropyl)-N-[2-(trifluoromethyl)benzyl]-6-({[2-(trifluoromethyl)phenyl]carbonyl}amino)-1H-benzimidazole-4-carboxamide hydrochloride]
8.49	7.18	–	Cc1c(Cl)cccc1NC(=O)c1cc(NC(=O)c2ccccc2C(F)(F)F)cc2[nH]c(C3CN(C(=O)OC(C)(C)C)C3)nc12 [Example 61, tert-Butyl 3-{4-[(3-chloro-2-methylphenyl)carbamoyl]-6-({[2-(trifluoromethyl)phenyl]carbonyl}amino)-1H-benzimidazol-2-yl}azetidine-1-carboxylate]
7.96	7.29	–	CNCc1nc2c(C(=O)Nc3cccc(Cl)c3C)cc(NC(=O)c3ccccc3C(F)(F)F)cc2[nH]1 [Example 62, N-(3-Chloro-2-methylphenyl)-2-[(methylamino)methyl]-6-({[2-(trifluoromethyl)phenyl]carbonyl}amino)-1H-benzimidazole-4-carboxamide dihydrochloride]
8.25	7.26	–	CC(=O)OCc1nc2c(C(=O)Nc3cccc(Cl)c3C)cc(NC(=O)c3ccccc3C(F)(F)F)cc2[nH]1 [Example 63, {4-[(3-Chloro-2-methylphenyl)carbamoyl]-6-({[2-(trifluoromethyl)phenyl]carbonyl}amino)-1H-benzimidazol-2-yl}methyl acetate]
8.64	–	7.70	Cc1c(Cl)cccc1NC(=O)c1cc(NC(=O)c2ccccc2C(F)(F)F)cc2[nH]c([C@H]3CCCO3)nc12 [Example 64, N-(3-Chloro-2-methylphenyl)-2-[(2R)-tetrahydrofuran-2-yl]-6-({[2-(trifluoromethyl)phenyl]carbonyl}amino)-1H-benzimidazole-4-carboxamide hydrochloride]
8.02	7.14	–	O=C(Nc1cc(C(=O)NCc2ccccc2C(F)(F)F)c2nc([C@H]3CCCO3)[nH]c2c1)c1ccccc1C(F)(F)F [Example 65, 2-[(2R)-Tetrahydrofuran-2-yl]-N-[2-(trifluoromethyl)benzyl]-6-({[2-(trifluoromethyl)phenyl]carbonyl}amino)-1H-benzimidazole-4-carboxamide]
7.20	< 5.00	–	CC(=O)N1CC(c2nc3c(C(=O)Nc4cccc(Cl)c4C)cc(NC(=O)c4ccccc4C(F)(F)F)cc3[nH]2)C1 [Example 68, 2-(1-Acetylazetidin-3-yl)-N-(3-chloro-2-methylphenyl)-6-({[2-(trifluoromethyl)phenyl]carbonyl}amino)-1H-benzimidazole-4-carboxamide hydrochloride]
8.00	7.67	–	Cc1c(Cl)cccc1NC(=O)c1cc(NC(=O)c2ccccc2C(F)(F)F)cc2[nH]c([C@@H]3CCCN3C(=O)OC(C)(C)C)nc12 [Example 69, tert-Butyl (2S)-2-{4-[(3-chloro-2-methylphenyl)carbamoyl]-6-({[2-(trifluoromethyl)phenyl]carbonyl}amino)-1H-benzimidazol-2-yl}pyrrolidine 1-carboxylate]
8.34	6.83	–	Cc1c(Cl)cccc1NC(=O)c1cc(NC(=O)c2ccccc2C(F)(F)F)cc2[nH]c([C@H]3CCCN3C(=O)OC(C)(C)C)nc12 [Example 70, tert-Butyl (2R)-2-{4-[(3-chloro-2-methylphenyl)carbamoyl]-6-({[2-(trifluoromethyl)phenyl]carbonyl}amino)-1H-benzimidazol-2-yl}pyrrolidine-1-carboxylate]
